Laboratory results reported in US20240368185A1, “MACROCYCLIC AZOLOPYRIDINES” (Fulcrum Therapeutics, Inc., priority 2021, published 2024).
Values after ≈ are worked out from the molar mass of the structure shown.

How the values were obtained:
[1] = Wet-milling study (ball mill, 30 s, 1 vol. water); type: physicochemical; details: milled with 1 vol. water
[2] = 24 h
Description: (§1) An abbreviated polymorph/solvate screen and approximate solubility determination were performed utilizing each class III solvent and several class II solvents as listed under ICH Guidelines Q3C. […] Form P was chosen as the target polymorph for crystallization.

physchem [3] = details: 70 °C, organic solvent or mixture, thermodynamic from solid
Description: as §1

[4] = Particle size distribution (PSD); type: physicochemical
Description: Several other Experiments (Experiment 2, Experiment 3, Experiment 4, Experiment 5, Experiment 7, and Experiment 8) were performed to study the effect of seed loading, seed size and scale on particle size of final product.
The material as received was characterized by X-Ray Powder Diffraction (XRPD), Polarized Light Microscopy (PLM), Particle Size Distribution (PSD), Thermo-Gravimetric Analysis (TGA) and Differential Scanning Calorimetry (DSC).
In the second batch, crystals with rod morphology and a length of greater than 200 μm were observed. Two final scaled up batches were performed. A 43 gram batch was produced as small seeds and a 22 gram batch was produced using the first 10 gram batch (Crystallization 1) as large seeds to assess the impact of different size seeds on the process. Scanning electron microscopy (SEM) was used to compliment the polarized light microscope (PLM) and particle size distribution (PSD) measurements.

physchem [5] = details: organic solvent or mixture, thermodynamic from solid
Description: as §1

physchem [6] = type: physicochemical; details: organic solvent or mixture, thermodynamic from solid
Description: Crystalline, Form V material of (S)-12-fluoro-4-(2-methylpyridin-3-yl)-7a,8,13,14-tetrahydro-7H-[1,2,4]triazolo[4′,3′:1,6]pyrido[3,2-b]benzofuro[4,3-fg][1,4]oxazonine, free base, was prepared as follows. About 12 mg of Form P material was loaded into a 2 mL vial. […] The solution was stirred overnight and the next day a slurry was observed. The slurry solids were collected and analyzed by XRPD.

[7] = Dynamic vapor sorption (DVS) analysis; type: physicochemical; details: between about 2 to about 92% relative humidity (RH) at 25° C.
Description: Dynamic vapor sorption (DVS) analysis was performed using a DVS Intrinsic 1. The sample (25 mg) was loaded into a sample pan, suspended from a microbalance and exposed to a humidified stream of nitrogen gas. The sample was held for a minimum of 5 min at each level and only progressed to the next humidity level if there was <0.002% change in weight between measurements (interval: 60 seconds) or 240 min had elapsed.

[8] = type: physicochemical
Description: Crystalline, Form W material of (S)-12-fluoro-4-(2-methylpyridin-3-yl)-7a,8,13,14-tetrahydro-7H-[1,2,4]triazolo[4′,3′:1,6]pyrido[3,2-b]benzofuro[4,3-fg][1,4]oxazonine, free base, was prepared as follows. About 2.5 mg of (S)-12-fluoro-4-(2-methylpyridin-3-yl)-7a,8,13,14-tetrahydro-7H-[1,2,4]triazolo[4′,3′:1,6]pyrido[3,2-b]benzofuro[4,3-fg][1,4]oxazonine, maleic acid salt (Form 7-A), was loaded into a vial. 1 mL of water was added, and the mixture was warmed to 37° C. Additional water was added to the slurry, which thinned considerably and then appeared to start precipitating a fine white solid. This was viewed as likely disproportionation and additional water was not added. The mixture was stirred overnight, and the following day the fine solid suspended in the solution was collected and analyzed by XRPD. It was observed that the maleic acid salt had disproportionated over the slurry time.

[9] = Salt screening: XRPD form after exposure to 95%+ relative humidity for one day; type: physicochemical; set-up: key: Am = amorphous; details: solid dried under vacuum at 50° C., then 95%+ relative humidity for one day
Description: A stock solution of Form P material of (S)-12-fluoro-4-(2-methylpyridin-3-yl)-7a,8,13,14-tetrahydro-7H-[1,2,4]triazolo[4′,3′:1,6]pyrido[3,2-b]benzofuro[4,3-fg][1,4]oxazonine, free base, was prepared in 2,2,2-trifluoroethanol (50.8 mg/mL). Stock solutions of counter ion were prepared in EtOH.
Salt formation was carried out at room temperature in 2 mL vials. 25.4 mg of Form P free base material (500 μL stock solution) and 1.1 equivalents of counter ion were added to each vial. Solvent was allowed to evaporate at 40° C. overnight with stirring. […] These vials were kept on the hotplate to continue evaporating (temperature increased to 50° C.), while the more-dry samples were dried further under vacuum for 3 hours at 50° C. The samples still containing solvent at the end of the day were left to stir at 30° C. over the weekend to finish evaporating the solvent. These samples were dried further under vacuum for 3 hours at 50° C.
Approximately 20 volumes of solvent (0.5 mL) was added to each vial containing the dried solids. The three solvents selected were EtOH, EtOAc, and IPA:water (9:1 vol). Once solvents were added, the mixtures (or solutions) were stirred at room temperature. When slurries were formed, the solids were filtered for XRPD analysis.
XRPD analysis was done in three stages. XRPD of the wet cake was done for all collected samples. […]

[10] = Crystallization 1, 10 gram scale, milled Form P as seeds
[11] = Crystallization 2, 10 gram scale, crystals from Crystallization 1 as seeds
[12] = Experiment 1, initial process, 0.5 w/w % seed
[13] = Experiment 2, effect of seed loading, 0.5 w/w % milled seed
[14] = Experiment 3, effect of seed loading, 3.0 w/w % milled seed
[15] = Experiment 4, effect of seed size, 1.0 w/w % large seed
[16] = Experiment 5, effect of seed size, 1.0 w/w % milled seed
[17] = Experiment 6, wet milling study, after milling
[18] = Experiment 6, wet milling study, before milling
[19] = Experiment 7, effect of scale, 3 g scale
[20] = Experiment 8, effect of scale, 10 g scale

Cc1ncccc1-c1cc2c(n3cnnc13)NCc1c(F)ccc3c1C(CO3)CO2 (stereo in doubt) [Form P, (S)-12-fluoro-4-(2-methylpyridin-3-yl)-7a,8,13,14-tetrahydro-7H-[1,2,4]triazolo[4′,3′:1,6]pyrido[3,2-b]benzofuro[4,3-fg][1,4]oxazonine]
crystallinity and solid form purity after wet milling [1]: maintained crystallinity and solid form purity
purity after slurry (potential degradation) [2]: 99.9%
solubility (physchem [3]): 56.7 mg/mL (≈ 140 mM)
Particle Size Distribution D(10) [4, 10]: 37.2 µm
Particle Size Distribution D(50) [4, 10]: 115 µm
Particle Size Distribution D(90) [4, 10]: 196 µm
Particle Size Distribution D(10) [4, 11]: 23.4 µm
Particle Size Distribution D(50) [4, 11]: 126 µm
Particle Size Distribution D(90) [4, 11]: 634 µm
Particle Size Distribution (PSD) D10 [4, 12]: 19 μm
Particle Size Distribution (PSD) D50 [4, 12]: 100 μm
Particle Size Distribution (PSD) D90 [4, 12]: 213 μm
Particle Size Distribution (PSD) D10 [4, 13]: 17 μm
Particle Size Distribution (PSD) D50 [4, 13]: 93 μm
Particle Size Distribution (PSD) D90 [4, 13]: 187 μm
Particle Size Distribution (PSD) D10 [4, 14]: 7 μm
Particle Size Distribution (PSD) D50 [4, 14]: 31 μm
Particle Size Distribution (PSD) D90 [4, 14]: 83 μm
Particle Size Distribution (PSD) D10 [4, 15]: 28 μm
Particle Size Distribution (PSD) D50 [4, 15]: 90 μm
Particle Size Distribution (PSD) D90 [4, 15]: 171 μm
Particle Size Distribution (PSD) D10 [4, 16]: 15 μm
Particle Size Distribution (PSD) D50 [4, 16]: 82 μm
Particle Size Distribution (PSD) D90 [4, 16]: 164 μm
Particle Size Distribution (PSD) D10 [4, 17]: 11 μm
Particle Size Distribution (PSD) D50 [4, 17]: 37 μm
Particle Size Distribution (PSD) D90 [4, 17]: 95 μm
Particle Size Distribution (PSD) D10 [4, 18]: 32 μm
Particle Size Distribution (PSD) D50 [4, 18]: 199 μm
Particle Size Distribution (PSD) D90 [4, 18]: 372 μm
Particle Size Distribution (PSD) D10 [4, 19]: 11 μm
Particle Size Distribution (PSD) D50 [4, 19]: 48 μm
Particle Size Distribution (PSD) D90 [4, 19]: 113 μm
Particle Size Distribution (PSD) D10 [4, 20]: 11 μm
Particle Size Distribution (PSD) D50 [4, 20]: 45 μm
Particle Size Distribution (PSD) D90 [4, 20]: 121 μm
D10 ([4]; starting material as received): 1.99 μm
D50 ([4]; starting material as received): 3.33 μm
D90 ([4]; starting material as received): 5.35 μm
solubility (physchem [5]): > 10 mg/mL
solubility (physchem [6]): 167 to 333 mg/mL (≈ 414 to 825 mM)
DVS reversable total mass change [7]: about 0.53 wt. %

(S)-12-fluoro-4-(2-methylpyridin-3-yl)-7a,8,13,14-tetrahydro-7H-[1,2,4]triazolo[4′,3′:1,6]pyrido[3,2-b]benzofuro[4,3-fg][1,4]oxazonine [Form 13-A]
DVS reversable total mass change [7]: about 0.97 wt. %

Cc1ncccc1-c1cc2c(n3cnnc13)NCc1c(F)ccc3c1C(CO3)CO2 (stereo in doubt) [Form H, (S)-12-fluoro-4-(2-methylpyridin-3-yl)-7a,8,13,14-tetrahydro-7H-[1,2,4]triazolo[4′,3′:1,6]pyrido[3,2-b]benzofuro[4,3-fg][1,4]oxazonine]
DVS reversable total mass change [7]: about 7.6 wt. %

(S)-12-fluoro-4-(2-methylpyridin-3-yl)-7a,8,13,14-tetrahydro-7H-[1,2,4]triazolo[4′,3′:1,6]pyrido[3,2-b]benzofuro[4,3-fg][1,4]oxazonine [Form 7-A]
stability of salt in water slurry [8]: disproportionated

(S)-12-fluoro-4-(2-methylpyridin-3-yl)-7a,8,13,14-tetrahydro-7H-[1,2,4]triazolo[4′,3′:1,6]pyrido[3,2-b]benzofuro[4,3-fg][1,4]oxazonine [Form 5-A]
DVS reversable total mass change [7]: about 3.1 wt. %

Cc1ncccc1-c1cc2c(n3cnnc13)NCc1c(F)ccc3c1C(CO3)CO2 (stereo in doubt) [Form E, (S)-12-fluoro-4-(2-methylpyridin-3-yl)-7a,8,13,14-tetrahydro-7H-[1,2,4]triazolo[4′,3′:1,6]pyrido[3,2-b]benzofuro[4,3-fg][1,4]oxazonine]
DVS reversable total mass change [7]: about 10.3 wt. %

(S)-12-fluoro-4-(2-methylpyridin-3-yl)-7a,8,13,14-tetrahydro-7H-[1,2,4]triazolo[4′,3′:1,6]pyrido[3,2-b]benzofuro[4,3-fg][1,4]oxazonine [Form 8-B]
DVS reversable total mass change [7]: about 0.82 wt. %

(S)-12-fluoro-4-(2-methylpyridin-3-yl)-7a,8,13,14-tetrahydro-7H-[1,2,4]triazolo[4′,3′:1,6]pyrido[3,2-b]benzofuro[4,3-fg][1,4]oxazonine [Form 10-A]
DVS reversable total mass change [7]: about 1.4 wt. %

(S)-12-fluoro-4-(2-methylpyridin-3-yl)-7a,8,13,14-tetrahydro-7H-[1,2,4]triazolo[4′,3′:1,6]pyrido[3,2-b]benzofuro[4,3-fg][1,4]oxazonine [Benzenesulfonic acid (1)]
XRPD Form humidity ([9]; slurry solvent EtOAc): Am
XRPD Form humidity ([9]; slurry solvent EtOH): Am
